The values that follow are results of earlier work, collected in PubChem BioAssay AID1259409 (Chemical Carcinogenesis Research Information System (CCRIS), 2018).

In the data set the test system is rodent chemically induced tumor inhibition, incidence and multiplicity. The data set is described as follows: CCRIS tumor inhibitor studies.

As for `CC(C)C[C@H]1C(=O)N2CCC[C@H]2[C@]2(O)O[C@](NC(=O)[C@@H]3C=C4c5cccc6[nH]c(Br)c(c56)C[C@H]4N(C)C3)(C(C)C)C(=O)N12`, the “tumour outcome (control, treated, inhibition, significance)” value reads like this: (Carcinogen: N-METHYL-N-NITROSOUREA, 684-93-5, Dose [Inhibitor]: 0.4 MG/100 G BW 1/D FOR 129 D BEGINNING AT 60 D OF AGE (STUDY DURATION: 223 D), Route [Inhibitor]: SUBCUTANEOUS, Species: RAT, Strain/Sex: SPRAGUE-DAWLEY/FEMALE, Target Tissue: Type of Lesion: MAMMARY GLAND: NOT SPECIFIED, Dose [Carcinogen]: 2.5 MG/100 G BW ONCE AT 50 D AND ONCE AT 57 D OF AGE, Promoter: NONE USED) 73%, 37%, 49%, p<0.005; (Carcinogen: N-METHYL-N-NITROSOUREA, 684-93-5, Dose [Inhibitor]: 0.4 MG/100 G BW 1/D FOR 175 D BEGINNING AT 60 D OF AGE (STUDY DURATION: 185 D), Route [Inhibitor]: SUBCUTANEOUS, Species: RAT, Strain/Sex: SPRAGUE-DAWLEY/FEMALE, Target Tissue: Type of Lesion: MAMMARY GLAND: NOT SPECIFIED, Dose [Carcinogen]: 1.25 MG/100 G BW ONCE AT 50 D AND ONCE AT 57 D OF AGE, Promoter: NONE USED) 27%, 13%, 52%, not significant; (Carcinogen: N-METHYL-N-NITROSOUREA, 684-93-5, Dose [Inhibitor]: 0.4 MG/100 G BW 1/D PLUS 328 MG RETINYL ACETATE/KG DIET FOR 175 D BEGINNING AT 60 D OF AGE (STUDY DURATION: 185 D), Route [Inhibitor]: SUBCUTANEOUS, Species: RAT, Strain/Sex: SPRAGUE-DAWLEY/FEMALE, Target Tissue: Type of Lesion: MAMMARY GLAND: NOT SPECIFIED, Dose [Carcinogen]: 1.25 MG/100 G BW ONCE AT 50 D AND ONCE AT 57 D OF AGE, Promoter: NONE USED) 27%, 0%, 100%, p<0.01; (Carcinogen: N-METHYL-N-NITROSOUREA, 684-93-5, Dose [Inhibitor]: 0.4 MG/100 G BW 1/D PLUS 328 MG RETINYL ACETATE/KG OF DIET, FOR 129 D BEGINNING AT 60 D OF AGE (STUDY DURATION: 223 D), Route [Inhibitor]: SUBCUTANEOUS, Species: RAT, Strain/Sex: SPRAGUE-DAWLEY/FEMALE, Target Tissue: Type of Lesion: MAMMARY GLAND: NOT SPECIFIED, Dose [Carcinogen]: 2.5 MG/100 G BW ONCE AT 50 D AND ONCE AT 57 D OF AGE, Promoter: NONE USED) 73%, 7%, 90%, p<0.005; (Carcinogen: NONE USED, Dose [Inhibitor]: 0.1 MG IN SALINE 1/D FOR 12 MO BEGINNING AT 2 MO OF AGE (STUDY DURATION: 22 MO), Route [Inhibitor]: SUBCUTANEOUS, Species: MOUSE, Strain/Sex: C3H/FEMALE, Target Tissue: Type of Lesion: MAMMARY GLAND: CARCINOMA, Promoter: NONE USED) 24/90 (27%), 1/90 (1%), 96%, p<0.001; (Carcinogen: NONE USED, Dose [Inhibitor]: 0.1 MG IN SALINE 1/D FOR 30 D ON ALTERNATE MO BEGINNING AT 7 MO OF AGE FOR 12 MO (STUDY DURATION: 12 MO), Route [Inhibitor]: SUBCUTANEOUS, Species: MOUSE, Strain/Sex: C3H/FEMALE, Target Tissue: Type of Lesion: MAMMARY GLAND: CARCINOMA, Promoter: NONE USED) 36/70 (51%), 9/70 (13%), 74%, p<0.01. Besides, the “tumour outcome (control, treated, inhibition, significance)” value is listed as 24/29 (83%), 13/28 (46%), 44%, p<0.01 (Carcinogen: NONE USED, Dose [Inhibitor]: 0.1 MG/D BEGINNING AT 1 MO OF AGE FOR 16 MO (STUDY DURATION: 16 MO), Route [Inhibitor]: SUBCUTANEOUS, Species: MOUSE, Strain/Sex: C3H/FEMALE, Target Tissue: Type of Lesion: MAMMARY GLAND: TUMOR, Promoter: NONE USED); 70%, 32%, 54%, p<0.05 (Carcinogen: NONE USED, Dose [Inhibitor]: 0.5 MG IN 0.05 ML OLIVE OIL 1/D FOR 7 WK BEGINNING AT 4 WK OF AGE (STUDY DURATION: 26 MO), Route [Inhibitor]: SUBCUTANEOUS, Species: RAT, Strain/Sex: SPRAGUE-DAWLEY/FEMALE, Target Tissue: Type of Lesion: MAMMARY GLAND: TUMOR, Promoter: NONE USED); 70%, 55%, 21%, p<0.05 (Carcinogen: NONE USED, Dose [Inhibitor]: 0.5 MG IN 0.05 ML OLIVE OIL 1/D FOR 7 WK BEGINNING AT 11 WK OF AGE (STUDY DURATION: 26 MO), Route [Inhibitor]: SUBCUTANEOUS, Species: RAT, Strain/Sex: SPRAGUE-DAWLEY/FEMALE, Target Tissue: Type of Lesion: MAMMARY GLAND: TUMORS, Promoter: NONE USED); 33/38 (87%), 10/13 (77%), 11%, not calculated (Carcinogen: NONE USED, Dose [Inhibitor]: 8.5 MG/KG 1/D FOR 4 D TO PREGNANT MICE ON D 12 TO D 15 OF PREGNANCY, FEMALE OFFSPRING OBSERVED FOR 10 MO (STUDY DURATION, Route [Inhibitor]: SUBCUTANEOUS, Species: MOUSE, Strain/Sex: SHN/FEMALE, Target Tissue: Type of Lesion: MAMMARY GLAND: NOT SPECIFIED, Promoter: NONE USED); 33/38 (87%), 17/17 (100%), -15%, not significant (Carcinogen: NONE USED, Dose [Inhibitor]: 40 MG/KG 1/D FOR FIRST 5 D OF POSTNATAL LIFE, OBSERVED FOR 10 MO (STUDY DURATION: 10 MO), Route [Inhibitor]: SUBCUTANEOUS, Species: MOUSE, Strain/Sex: SHN/FEMALE, Target Tissue: Type of Lesion: MAMMARY GLAND: NOT SPECIFIED, Promoter: NONE USED); 39/44 (89%), 24/43 (56%), 37%, p<0.05 (Carcinogen: NONE USED, Dose [Inhibitor]: 100 UG OF 1 MG/ML DISSOLVED IN A MINIMAL AMOUNT OF ETHANOL AND SUSPENDED IN 0.9% NACL 1/D FROM D 7 TO 21 OF PREGNANCY (S, Route [Inhibitor]: SUBCUTANEOUS, Species: MOUSE, Strain/Sex: GR/FEMALE, Target Tissue: Type of Lesion: MAMMARY GLAND: TUMOR, Promoter: NONE USED). Moreover, the outcome is 88%, 3%, 97%, p<0.001 (at 4 mo post carcinogen dose); 88%, 28%, 68%, not calcula (Carcinogen: N-METHYL-N-NITROSOUREA, 684-93-5, Dose [Inhibitor]: 400 UG/100 G BW TOGETHER WITH 25 UG/100 G BW TAMOXIFEN 1/D FOR 6 MO BEGINNING 3 D POST CARCINOGEN DOSE, DOSAGE OF BOTH R, Route [Inhibitor]: SUBCUTANEOUS, Species: RAT, Strain/Sex: SPRAGUE-DAWLEY/FEMALE, Target Tissue: Type of Lesion: MAMMARY GLAND: CARCINOMA, Dose [Carcinogen]: 2.5 MG/100 G BW ONCE AT 50 D AND ONCE AT 57 D OF AGE, Promoter: NONE USED); 88%, 0%, 100%, p<0.001 (at 4 mo post carcinogen dose); 88%, 7%, 92%, not calcula (Carcinogen: N-METHYL-N-NITROSOUREA, 684-93-5, Dose [Inhibitor]: 400 UG/100 G BW TOGETHER WITH 25 UG/100 G BW TAMOXIFEN 1/D FOR 6 MO PLUS 328 MG RETINYL ACETATE/KG DIET FOR 6 MO, DOSAGE, Route [Inhibitor]: SUBCUTANEOUS, Species: RAT, Strain/Sex: SPRAGUE-DAWLEY/FEMALE, Target Tissue: Type of Lesion: MAMMARY GLAND: CARCINOMA, Dose [Carcinogen]: 2.5 MG/100 G BW ONCE AT 50 D AND ONCE AT 57 D OF AGE, Promoter: NONE USED); 9/25 (36%), 3/23 (13%), p<0.05 (Carcinogen: N-ethyl-N'-nitro-N-nitrosoguanidine (ENNG), 4245-77-6, Dose [Inhibitor]: 1 mg/kg bw 5 x a wk up to 14.5 mo of age (half a mo before termination of experiment), Route [Inhibitor]: Subcutaneous, Species: Rat, Strain/Sex: Crj:Donryu/female, Target Tissue: Type of Lesion: Uterus: Adenocarcinoma, Dose [Carcinogen]: 20 mg/kg, Promoter: None).
